Experimental data published in ChEMBL document CHEMBL1201862, “PubChem BioAssay data set” (2004).
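96-well plates; 48 h exposure; 5 concentrations. Endpoints by linear interpolation between flanking doses. Not reached: highest tested concentration assigned. The concentration for 50% growth inhibition is given as GI50.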 Calls of active or inactive are those of the source. Rule as the data show it: active = GI50 up to about 1.1 µM and inactive = higher.

Assays:
Assay in all cases: NCI-60 cell line screen, 48 h
M14 = tested on: M14
RPMI-8226 = tested on: RPMI-8226
UACC-62 = tested on: UACC-62
MOLT-4 = tested on: MOLT-4
NCI-H460 = tested on: NCI-H460
NCI-H522 = tested on: NCI-H522
SF-539 = tested on: SF-539
UO-31 = tested on: UO-31
MDA-MB-231 = tested on: MDA-MB-231
COLO 205 = tested on: COLO 205
MDA-MB-435 = tested on: MDA-MB-435
HOP-62 = tested on: HOP-62
ACHN = tested on: ACHN
LOX IMVI = tested on: LOX IMVI
Malme-3M = tested on: Malme-3M
EKVX = tested on: EKVX
UACC-257 = tested on: UACC-257
PC-3 = tested on: PC-3
IGROV-1 = tested on: IGROV-1
CCRF-CEM = tested on: CCRF-CEM
SNB-19 = tested on: SNB-19
HCC 2998 = tested on: HCC 2998
NCI-H23 = tested on: NCI-H23
HCT-116 = tested on: HCT-116
SR = tested on: SR
786-0 = tested on: 786-0
MDA-N = tested on: MDA-N
T47D = tested on: T47D
NCI/ADR-RES = tested on: NCI/ADR-RES
OVCAR-3 = tested on: OVCAR-3
CAKI-1 = tested on: CAKI-1
MCF7 = tested on: MCF7
RXF 393 = tested on: RXF 393
Hs-578T = tested on: Hs-578T
A549 = tested on: A549
HT-29 = tested on: HT-29
OVCAR-4 = tested on: OVCAR-4
SF-268 = tested on: SF-268
SK-OV-3 = tested on: SK-OV-3
KM12 = tested on: KM12
U-251 = tested on: U-251
OVCAR-5 = tested on: OVCAR-5
SF-295 = tested on: SF-295
SNB-75 = tested on: SNB-75
SN12C = tested on: SN12C
K562 = tested on: K562
SK-MEL-2 = tested on: SK-MEL-2
SW-620 = tested on: SW-620
TK-10 = tested on: TK-10
HCT-15 = tested on: HCT-15
OVCAR-8 = tested on: OVCAR-8
BT-549 = tested on: BT-549
SK-MEL-28 = tested on: SK-MEL-28
SK-MEL-5 = tested on: SK-MEL-5
A498 = tested on: A498
NCI-H226 = tested on: NCI-H226
HL-60 = tested on: HL-60
DU-145 = tested on: DU-145

Measured: GI50

Cc1csc2nc3c(cnn3C)c(=S)n12
inactive: M14 > 100 µM | RPMI-8226 > 100 µM | UACC-62 > 100 µM | MOLT-4 > 100 µM | NCI-H460 > 100 µM | NCI-H522 11 µM | SF-539 > 100 µM | UO-31 33.5 µM | MDA-MB-231 > 10 µM | COLO 205 > 10 µM | MDA-MB-435 > 100 µM | HOP-62 50 µM | ACHN 44.5 µM | LOX IMVI 51.6 µM | Malme-3M > 100 µM | EKVX 14.9 µM | UACC-257 > 100 µM | PC-3 > 100 µM | IGROV-1 > 100 µM | CCRF-CEM 87.7 µM | SNB-19 > 100 µM | HCC 2998 > 100 µM | NCI-H23 > 100 µM | HCT-116 > 100 µM | SR > 100 µM | 786-0 > 100 µM | MDA-N > 100 µM | T47D > 10 µM | NCI/ADR-RES > 100 µM | OVCAR-3 > 100 µM | CAKI-1 34.3 µM | MCF7 > 100 µM | RXF 393 35.1 µM | Hs-578T 12.8 µM | A549 > 100 µM | HT-29 84.5 µM | OVCAR-4 > 100 µM | SF-268 > 100 µM | SK-OV-3 61.8 µM | KM12 > 100 µM | U-251 95.3 µM | OVCAR-5 > 100 µM | SF-295 > 100 µM | SNB-75 28.1 µM | SN12C 24.2 µM | K562 > 100 µM | SK-MEL-2 41.9 µM | SW-620 > 100 µM | TK-10 80.5 µM | OVCAR-8 > 100 µM | BT-549 39.5 µM | SK-MEL-28 > 100 µM | SK-MEL-5 > 100 µM
71.4 µM: HCT-15

O=C(O)c1nn[nH]c1Cl
> 100 µM: HCT-15
inactive: M14 > 100 µM | RPMI-8226 > 100 µM | UACC-62 > 100 µM | MOLT-4 > 10 µM | NCI-H460 > 100 µM | NCI-H522 > 100 µM | SF-539 > 100 µM | UO-31 > 100 µM | MDA-MB-231 > 100 µM | COLO 205 > 100 µM | MDA-MB-435 > 100 µM | HOP-62 > 100 µM | ACHN > 100 µM | LOX IMVI > 100 µM | Malme-3M > 100 µM | EKVX > 100 µM | UACC-257 > 100 µM | PC-3 > 100 µM | IGROV-1 > 100 µM | CCRF-CEM > 100 µM | HCC 2998 > 100 µM | NCI-H23 > 100 µM | HCT-116 > 100 µM | 786-0 > 100 µM | MDA-N > 100 µM | A498 > 100 µM | T47D > 100 µM | NCI/ADR-RES > 100 µM | NCI-H226 > 100 µM | OVCAR-3 > 100 µM | MCF7 > 100 µM | RXF 393 > 100 µM | Hs-578T > 100 µM | A549 > 100 µM | HL-60 > 100 µM | HT-29 > 100 µM | OVCAR-4 > 100 µM | SF-268 > 100 µM | SK-OV-3 > 100 µM | KM12 > 100 µM | U-251 > 100 µM | OVCAR-5 > 100 µM | SF-295 > 100 µM | SNB-75 > 100 µM | DU-145 > 100 µM | SN12C > 100 µM | K562 > 100 µM | SK-MEL-2 > 100 µM | SW-620 > 100 µM | TK-10 > 100 µM | OVCAR-8 > 100 µM | BT-549 > 100 µM | SK-MEL-28 > 100 µM | SK-MEL-5 > 100 µM
